Experimental findings from USRE50282E1, “Specific modification of antibody with IgG-binding peptide” (KAGOSHIMA UNIVERSITY, priority 2015, dated 2025) are described below.

*1 amine or outer side, *2 acyl side, *3 side chain or, on linkers, in order; H or OH if unused. Where a SMILES comes first, the peptide text is derived from it. Bridges are numbered along the chain shown (N, C = ends). Where no end group is shown, it is not given here. [ ]: non-standard residue; d: D form. The star is where a group is joined. DSS = disuccinimidyl suberate, reactive NHS group, O=C(CCCCCCC(=O)*)ON1C(=O)CCC1=O; Dolaproine = CO[C@@H]([C@@H]1CCCN1)[C@@H](C)C(=O)O; Hexanoyl(6-maleimido) = O=C1C=CC(=O)N1CCCCCC(=O)*; Biotin = O=C1N[C@H]2[C@H](CS[C@H]2CCCCC(=O)*)N1; Dil = CC[C@H](C)[C@H](NC)[C@@H](CC(=O)O)OC; PABC = O=C(OCc1ccc(N[*:1])cc1)[*:2]; X1 = C[C@@H](N*)[C@@H](O)c1ccccc1; PEG5 = NCCOCCOCCOCCOCCOCCC(=O)O; Cit = NC(=O)NCCC[C@H](N)C(=O)O; NMeV = CN[C@H](C(=O)O)C(C)C

For assay [1], the target named is T1, human IgG (Homo sapiens, UniProt P01857). The assay is classed as binding. Particulars: SPR; peptides N-terminally blocked with biotinylated PEG4; NHS group hydrolysed.
Procedure: 0.4 M EDC (1-ethyl-3-(3-dimethylaminopropyl)-carbodiimide) and 0.1 M sulfo-NHS (sulfo-N-hydroxysuccinimide) were mixed in equal amounts and then injected onto a CM5 sensor chip loaded in BIAcore T200 (GE Healthcare Japan Corp.) for 7 minutes at a flow rate of 10 μl/ml to activate the sensor chip. IgG was immobilized thereonto in an amount of 4000 to 5000 in terms of RU value under conditions of pH 4.0 (10 mM sodium acetate). While a HBS-EP buffer solution (0.01 M HEPES, 0.15 M NaCl, 0.005% TWEEN® 20, and 3 mM EDTA, pH 7.0) was used, binding reaction was monitored by the injection of the peptide at a concentration of 10 nM to 2 μM for 180 seconds at a flow rate of 50 μl/ml. Then, dissociation reaction was assayed by washing with a buffer solution for 600 seconds. Binding parameters were analyzed using BIAevalution T100 software.
Assay [2] deals with SK-BR3 cells. Particulars: peptide plus SA-PE label only.
Procedure: (§1) HEK293 cells were transfected with pcDNA3.1/Zeo(+) carrying scFv-Fc gene comprising anti-Her2 scFv (4D5) linked to Fc genes, using Lipofectamine 2000, and cultured for 5 days. […] The cells were washed once with PBS containing 3% BSA and suspended in 100 μL of PBS containing 3% BSA. […] The cells were washed once again with PBS containing 3% BSA and then dispersed in 100 μL of PBS containing 3% BSA.
Assay [3] addresses T2, human IgG Fc (Homo sapiens, UniProt P01857).
T2 construct: human IgG (Chugai Pharmaceutical Co., Ltd.) Fc solution; purchased Chugai Pharmaceutical Co., Ltd
Briefly: Cross-linking reaction with Fc analyzed by ion-exchange chromatography (Examples 6 and 7). The assay is classed as biochemical. Particulars: for unreacted form (peak 2) produced: 15 minutes. The method, then: The reaction was terminated by the addition of 10 μL of 1 M Tris-HCl (pH 7.0). 50 μL of the reaction product was injected to NGC Chromatography system (Bio-Rad Laboratories, Inc.) connected with Shodex IEC SP-825 column, followed by gradient elution from a 25 mM acetate buffer (pH 4.5) to a 25 mM acetate buffer (pH 4.5) containing 1 M NaCl. The protein elution was monitored on the basis of absorbance at 215 nm. Each obtained peak was separated and subjected to molecular weight measurement by LC/MS.
20 μL of the obtained fraction of the peak was injected to Shimadzu LCMS-8030 connected with Waters ACQUITY UPLC BEH C8 (1.7 μm, 2.1 mm×100 mm) column, followed by gradient elution from 4% acetonitrile containing 0.1% formic acid to 60% acetonitrile containing 0.1% formic acid. The eluted peaks were subjected to mass spectrometry, and the masses were calculated by deconvolution from polyvalent ion peaks using analytical software.
1.0 μL (molar ratio: 1.0) of the DSG-modified IgG-binding peptide (4 mM) dissolved in DMF, prepared in Example 5 was added to 200 μL of a human IgG Fc solution prepared at pH 4.0 (25 mM acetate buffer solution), pH 5.5 (25 mM acetate buffer solution), or pH 7.0 (PBS), and the mixture was rapidly stirred and then reacted at room temperature. 1, 5, 10, or 30 minutes after the start of the reaction, the reaction was terminated by the addition of 10 μL of 1 M Tris-HCl (pH 7.0). 50 μL of the reaction product was injected to NGC Chromatography system (Bio-Rad Laboratories, Inc.) connected with Shodex IEC SP-825 column, followed by gradient elution from a 25 mM acetate buffer (pH 4.5) to a 25 mM acetate buffer (pH 4.5) containing 1 M NaCl. The protein elution was monitored on the basis of absorbance at 215 nm. On the basis of the obtained chromatogram, the percentage of each peak was calculated.

In assay [4] the target is human IgG (Homo sapiens, UniProt P01859). The experiment in a line: Labeling of various IgG, SDS-PAGE and Western blot with HRP-labeled streptavidin (Example 13). The following applies: human IgG2; antibody:peptide 1:4; 30 minutes.
Sequence of human IgG (Homo sapiens, UniProt P01859) (P01859 1-326 isoform P01859-1): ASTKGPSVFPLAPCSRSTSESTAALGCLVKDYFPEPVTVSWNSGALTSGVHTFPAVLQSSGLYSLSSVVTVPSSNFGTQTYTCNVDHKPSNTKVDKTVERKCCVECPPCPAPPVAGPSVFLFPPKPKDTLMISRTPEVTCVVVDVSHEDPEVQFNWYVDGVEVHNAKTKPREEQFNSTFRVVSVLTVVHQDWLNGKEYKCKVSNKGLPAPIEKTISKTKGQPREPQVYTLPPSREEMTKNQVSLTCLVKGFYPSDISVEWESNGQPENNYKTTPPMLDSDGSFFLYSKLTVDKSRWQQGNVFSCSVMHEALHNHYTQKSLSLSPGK
Assay [5] concerns the target human IgG (Homo sapiens, UniProt P01861). Described as above. Particulars: human IgG4; antibody:peptide 1:4; 30 minutes.
The target of assay [6] is T1, human IgG. The description is as above. The following applies: human monoclonal IgG1; antibody:peptide 1:4; 30 minutes.
Assay [7] concerns the target T3, rabbit IgG (polyclonal antibody) (Oryctolagus cuniculus, UniProt P01870).
T3 construct: purchased Thermo Fisher Scientific Inc
Described as above. The assay is classed as binding. The following applies: antibody:peptide 1:4; 30 minutes.

For assay [8], the system named is 4D5-Fc antibody. Particulars: PE-labeled streptavidin; dead cells excluded by 7-AAD.
Procedure: as §1
For assay [9], the system named is hIgA, bovine gelatin, or BSA. The experiment in a line: ELISA of reaction between labeled IgG-binding peptide and other plate proteins (Example 4). The following applies: excess of labeled peptide reagent. As for the experimental part:
A 0.1 M NaHCO3 solution containing each protein (IgG (Chugai Pharmaceutical Co., Ltd.), IgA (Athens Research & Technology, Inc.), or bovine gelatin (Wako Pure Chemical Industries, Ltd.)) (50 ng (0.33 pmol)/μl/well) was added to wells of a 96-well microplate (Nunc® MaxiSorp), and the plate was left overnight at room temperature to adsorb each protein onto the surface of the plate. […] After a lapse of 1 hour, the reaction was terminated by the addition of 1 M Tris-HCl (pH 7.0) at 3 μL/well. SA-HRP (Vector Laboratories, Inc.) diluted 2000-fold with 0.5% BSA was added thereto at 50 μL/well and reacted at room temperature for 1 hour. Then, the plate was washed five times with 0.1% PBST. Then, a TMB solution (Wako Pure Chemical Industries, Ltd.) was used in the color development of HRP. After 5-minute chromogenic reaction, the absorbance at 450 nm was measured using an ELISA plate reader (model 680 microplate reader (Bio-Rad Laboratories, Inc.)).

Assay [10] addresses T4, hIgG (Homo sapiens, UniProt P01857).
T4 construct: purchased Chugai Pharmaceutical Co., Ltd
The experiment in a line: ELISA of reaction between labeled IgG-binding peptide and plate-adsorbed IgG (Example 4).
Procedure: The biotinylated IgG-binding peptide modified with DSG was added at a molar ratio of 2 to hIgG (50 ng) immobilized overnight at 4° C. with a 50 ng/50 μL solution. […] The binding was detected in the same way as in (A).

Assay [11] has as its system SK-BR3 cells. Briefly: Cell growth inhibition, Cell Counting Kit-8, 72 hours (Examples 11 and 12). It is filed as cell-based. The following applies: 0 to 500 nM.
Procedure: After culture at 37° C. for 24 hours in a 5% CO2 incubator, 100 μL of a medium containing each concentration of the antibody-drug conjugate (ADC) prepared as described above was added to each well, and the cells were further cultured at 37° C. for 72 hours in a CO2 incubator. 10 μL of Cell Counting Kit-8 (Dojindo Laboratories) was added to each well. After incubation at 37° C. for 2 hours in a CO2 incubator, the absorbance at 450 nm was measured using a plate reader.
After culture at 37° C. for 24 hours in a 5% CO2 incubator, 100 μL of a medium containing each concentration of the antibody-drug conjugate (ADC) was added to each well, and the cells were further cultured at 37° C. for 72 hours in a CO2 incubator. 10 μL of Cell Counting Kit-8 (Dojindo Laboratories) was added to each well. After incubation at 37° C. for 2 hours in a CO2 incubator, the absorbance at 450 nm was measured using a plate reader.

Sequence of human IgG (Homo sapiens, UniProt P01861) (P01861 1-327 isoform P01861-1): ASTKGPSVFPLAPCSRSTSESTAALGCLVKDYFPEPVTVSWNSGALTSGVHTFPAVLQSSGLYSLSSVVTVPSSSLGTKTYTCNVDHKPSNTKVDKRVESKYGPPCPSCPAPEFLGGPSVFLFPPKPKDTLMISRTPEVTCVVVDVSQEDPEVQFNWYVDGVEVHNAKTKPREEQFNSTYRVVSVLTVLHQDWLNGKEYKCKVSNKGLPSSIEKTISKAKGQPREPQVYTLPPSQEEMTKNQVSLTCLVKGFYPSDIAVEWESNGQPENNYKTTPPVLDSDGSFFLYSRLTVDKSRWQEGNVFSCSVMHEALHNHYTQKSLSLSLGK
T3 sequence (P01870 whole entry): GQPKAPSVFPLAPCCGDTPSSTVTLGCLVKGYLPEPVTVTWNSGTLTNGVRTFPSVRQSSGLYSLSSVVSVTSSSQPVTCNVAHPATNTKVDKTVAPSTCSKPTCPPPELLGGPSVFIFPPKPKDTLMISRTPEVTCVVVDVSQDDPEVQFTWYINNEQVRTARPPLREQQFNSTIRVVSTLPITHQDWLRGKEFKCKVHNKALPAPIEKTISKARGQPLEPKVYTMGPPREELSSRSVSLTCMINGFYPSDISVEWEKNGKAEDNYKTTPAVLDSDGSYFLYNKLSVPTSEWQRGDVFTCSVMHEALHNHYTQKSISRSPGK

In assay [1], `CC(C)C[C@@H]1NC(=O)[C@H](CCC(=O)O)NC(=O)CNC(=O)[C@H](CCCNC(=N)N)NC(=O)[C@H](Cc2c[nH]cn2)NC(=O)[C@H](Cc2ccc(O)cc2)NC(=O)[C@H](C)NC(=O)[C@@H](NC(=O)[C@H](CC(=O)O)NC(=O)[C@@H]2CCCN2C(=O)CNC(=O)CCOCCOCCOCCOCCOCCNC(=O)CCCC[C@@H]2SC[C@@H]3NC(=O)N[C@@H]32)CSSC[C@@H](C(=O)N[C@H](C(=O)N[C@@H](Cc2ccccc2)C(=O)N[C@@H](Cc2c[nH]cn2)C(N)=O)[C@@H](C)O)NC(=O)[C@H](Cc2c[nH]c3ccccc23)NC(=O)[C@H](C(C)C)NC1=O` [Type I] ({Biotin-PEG5}-GPDCAYHRGELVWCTFH-NH2; disulfide 4-14) yielded a ka of 1.57E+06 and a kd of 0.0144.

Take “Biotin-PEG4-RGNCAYHXGQLVWCTYH-NH2 [DSG-modified IgG-binding peptide]”: the “shift in fluorescence intensity without 4D5-Fc” value in assay [2] is recorded as “no shift in fluorescence intensity”. Further, the “Fc with a larger number of peptides than two added” value in assay [3] (excessive molar ratio 1:5, pH 4.5) is reported as “not detected”. Further, the “unreacted form (peak 2) produced” value in assay [3] (molar ratio 1:1, pH 4.5, room temperature) is listed as no more than 20%; in assay [3] (molar ratio 1:2, pH 4.5, room temperature), no more than 10%. The “yield of the adduct of two peptides (peak 4)” value in [3] (other pH cases (pH 5.5, pH 7.0), molar ratio 1.0) is reported as 35-40%; in assay [3] (pH 4.0, molar ratio 1.0), “approximately 15%”. For the same compound, the “part of the reaction completed within 1 minute” value in assay [3] (pH 4.0, pH 5.5 and pH 7.0, molar ratio 1.0, room temperature) is listed as no less than 90%. Moreover, the “amount of the unreacted form remaining” value in assay [3] (pH 4.0, molar ratio 1.0) is on record as “exceeded 40%”. The “yield of the unreacted form” value in [3] (pH 5.5 and 7.0, molar ratio 1.0) is recorded as roughly 10%. Moreover, the “labeling of human IgG2 (band in Western blot)” value in [4] is “dark bands”. Moreover, the “labeling of human IgG4 (band in Western blot)” value in assay [5] is “dark bands”. The “labeling of human IgG1 (band in Western blot)” value in assay [6] is “dark bands”. Also, the “labeling of rabbit polyclonal IgG (staining in Western blot)” value in assay [7] is reported as “strongly stained”. In addition, in assay [8], the “fluorescence intensity compared with biotinylated anti-human IgG mouse antibody” value is recorded as “rarely differed in fluorescence intensity”.

As for “labeled IgG-binding peptide modified with DSS: biotinylated IgG-binding (R8K) peptide modified with cross-linking agent, prepared as in Example 2 (GDDCAYHK(DSS)GELVWCTFH-NH2; not fully specified (N-terminus); cysteine pairing not given here; also: biotinylated)”, in [9], the “binding to other proteins” value is “not detected”. Further, the “reaction time at which saturation was seen” value in assay [10] (IgG and peptide at molar ratio 1:2) is on record as “approximately 15 minutes”. For the same compound, in [10] (molar ratios 1 to 10, 1 hour), the “molar ratio at which saturation was seen” value is given as “approximately 5”.

As for `CC[C@H](C)[C@@H]([C@@H](CC(=O)N1CCC[C@H]1[C@H](OC)[C@@H](C)C(=O)N[C@H](C)[C@@H](O)c1ccccc1)OC)N(C)C(=O)[C@@H](NC(=O)[C@H](C(C)C)N(C)C(=O)OCc1ccc(NC(=O)[C@H](CCCNC(N)=O)NC(=O)[C@@H](NC(=O)CCCCCN2C(=O)C=CC2=O)C(C)C)cc1)C(C)C` [VcMMAE, maleimidocaproyl-valine-citrulline-p-aminobenzoyloxycarbonyl-monomethyl auristatin E] ({Hexanoyl(6-maleimido)}-V[Cit][PABC][NMeV]V[Dil][Dolaproine]-X1), in assay [11], the “concentration giving cell growth inhibition” value is on record as no less than 250 nM.
